Tests used:
[1] = target: IDO (Homo sapiens, UniProt P14902); assay: LLE_IDO_ABS_DR (IDO assay)
[2] = target: T1, Human IDO1 (Homo sapiens, UniProt P14902); assay: IDO Kynurenine Assay with Human IDO1/HEK293 Cells; type: cell-based; settings: read-out: HEK human IDO-1 (IC50)
T1 construct: expressed in transfected cells; host or cells: HEK293
In short: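 HEK293 cells stably expressing human IDO1, in phenol red-free RPMI/10% FBS, exposed to compound for 20 h at 37 °C. Stopped with 0.2% TCA (50 °C, 30 min); kynurenine in supernatant detected with Ehrlich reagent, absorbance 490 nm.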

T1 sequence (P14902 whole entry): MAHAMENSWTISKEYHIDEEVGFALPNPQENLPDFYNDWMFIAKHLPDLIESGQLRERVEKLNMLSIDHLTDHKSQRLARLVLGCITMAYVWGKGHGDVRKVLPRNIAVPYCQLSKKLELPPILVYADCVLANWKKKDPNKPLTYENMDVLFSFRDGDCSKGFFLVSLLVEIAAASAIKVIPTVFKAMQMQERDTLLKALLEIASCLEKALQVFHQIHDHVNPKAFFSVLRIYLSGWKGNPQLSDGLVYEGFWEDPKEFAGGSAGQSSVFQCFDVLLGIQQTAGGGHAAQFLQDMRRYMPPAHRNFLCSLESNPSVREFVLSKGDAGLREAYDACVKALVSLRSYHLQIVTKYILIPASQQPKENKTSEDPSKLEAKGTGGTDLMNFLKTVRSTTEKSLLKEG
Sequence of IDO (P14902 whole entry): as above

Row | IC50 [1] | IC50 [2] | Structure (SMILES)
1 | 90 nM | 1830 nM | CC(C)CN(Cc1ccccc1)c1ccc(-c2ccccc2-c2nnn[nH]2)cc1NC(=O)Nc1ccc(C2CC2)cc1 [Example 291, 1-(4-(Benzyl(isobutyl)amino)-2′-(1H-tetrazol-5-yl)-[1,1′-biphenyl]-3-yl)-3-(4-cyclopropylphenyl)urea]
2 | 3.79 nM | 10 nM | Cc1ccc(NC(=O)Nc2cc(-c3ccccc3C(=O)O)cc(Cl)c2N(CC(C)C)CC(C)C)cc1 [Example 40, 3′-Chloro-4′-(diisobutylamino)-5′-(3-p-tolylureido)biphenyl-2-carboxylic acid]
3 | 500 nM | 350 nM | Cc1cc(NC(=O)Nc2cc(-c3ccccc3-c3nnn[nH]3)ccc2N(CC(C)C)CC2CC(F)(F)C2)on1 [Example 382]
4 | 80 nM | 110 nM | O=C(Nc1ccc(F)cc1F)Nc1cc(-c2ccccc2-c2nnn[nH]2)ccc1N(CCc1ccccc1)CCC(F)(F)F [Example 332, 1-(2,4-difluorophenyl)-3-(4-(phenethyl(3,3,3-trifluoropropyl)amino)-2′-(1H-tetrazol-5-yl)-[1,1′-biphenyl]-3-yl) urea]
5 | 2.85 nM | 7.87 nM | O=C(Nc1ccc(C(F)(F)F)cc1F)Nc1cc(-c2ccccc2-c2nnn[nH]2)ccc1N(CCC(F)(F)F)Cc1ccc(OC(F)(F)F)cc1 [Example 301, 1-(2′-(1H-tetrazol-5-yl)-4-((4-(trifluoromethoxy)benzyl)(3,3,3-trifluoropropyl)amino)-[1,1′-biphenyl]-3-yl)-3-(2-fluoro-4-(trifluoromethyl)phenyl)urea]
6 | 20 nM | 10 nM | Cc1ccc(NC(=O)Nc2cc(-c3cc(F)ccc3C(=O)O)ccc2N(CC(C)C)CC(C)C)cc1 [Example 126, 4′-(diisobutylamino)-5-fluoro-3′-(3-p-tolylureido)biphenyl-2-carboxylic acid]
7 | 6.12 nM | 7.33 nM | Cc1ccc(NC(=O)Nc2cc(-c3cc(F)ccc3-c3nnn[nH]3)ccc2N(CC(C)C)CC(C)C)cc1 [Example 483]
8 | 20 nM | 50 nM | O=C(Nc1ccc(C2CC2)cc1)Nc1cc(-c2ccccc2-c2nnn[nH]2)ccc1N(CCC(F)(F)F)Cc1ccc(F)cc1C(F)(F)F [Example 299, 1-(4-cyclopropylphenyl)-3-(4-((4-fluoro-2-(trifluoromethyl)benzyl) (3,3,3-trifluoropropyl)amino)-2′-(1H-tetrazol-5-yl)-[1,1′-biphenyl]-3-yl)urea]
9 | 70 nM | 130 nM | Cc1ccc(NC(=O)Nc2cc(-c3ccccc3-c3nnn[nH]3)ccc2N2C[C@@H]3C[C@H]2CN3c2ccc(F)cc2)cc1 [Example 383]
10 | 20 nM | 40 nM | Cc1ccc(NC(=O)Nc2cc(-c3ccccc3-c3nnn[nH]3)ccc2N(CCC(F)(F)F)Cc2ccccc2Cl)cc1 [Example 19, 1-(4-((2-Chlorobenzyl)(3,3,3-trifluoropropyl)amino)-2′-(1H-tetrazol-5-yl)-[1,1′-biphenyl]-3-yl)-3-(p-tolyl)urea]
11 | 3340 nM | 4000 nM | Cc1ccc(NC(=O)Nc2cc(-c3cc(F)ccc3C(=O)O)ccc2N2CCCc3ccccc32)cc1 [Example 373, 4′-(3,4-Dihydroquinolin-1(2H)-yl)-5-fluoro-3′-(3-(p-tolyl)ureido)-[1,1′-biphenyl]-2-carboxylic acid]
12 | 30 nM | 50 nM | CC(C)CN(Cc1ccccc1)c1ccc(-c2ccccc2-c2nnn[nH]2)cc1NC(=O)Nc1ccc(OC(F)(F)F)cc1 [Example 290, 1-(4-(Benzyl(isobutyl)amino)-2′-(1H-tetrazol-5-yl)-[1,1′-biphenyl]-3-yl)-3-(4-(trifluoromethoxy)phenyl)urea]
13 | 50 nM | 70 nM | Cc1ccc(NC(=O)Nc2cc(-c3cc(F)ccc3C(=O)O)ccc2N(CC(C)C)CC2CC(F)(F)C2)cc1 [Example 380]

Source: US9758492B2, “IDO inhibitors” (Bristol-Myers Squibb Company, priority 2013, dated 2017)
